The text below walks through data of patent publication US11077108B2, “Allosteric corticotropin-releasing factor receptor 1 (CRFR1) antagonists that decrease p-tau and improve cognition” (The Regents of the University of California, priority 2016, dated 2021).

A word on the Kd: it is the equilibrium constant for the complex coming apart. Read a high Kd as weaker binding. The term EC50 denotes the concentration needed to bring the measured effect to its halfway point. The low end stands for higher potency in that assay, the high end for lower potency in that assay. For orientation: Ki means a dissociation constant, usually derived from enzyme kinetics or from competition with a known ligand. The inhibition is the share of the control response that was lost under treatment. A higher inhibition goes with strong suppression.

Data set [1] addresses T1, CRFR1 (Homo sapiens, UniProt P34998).
T1 sequence (P34998 24-415): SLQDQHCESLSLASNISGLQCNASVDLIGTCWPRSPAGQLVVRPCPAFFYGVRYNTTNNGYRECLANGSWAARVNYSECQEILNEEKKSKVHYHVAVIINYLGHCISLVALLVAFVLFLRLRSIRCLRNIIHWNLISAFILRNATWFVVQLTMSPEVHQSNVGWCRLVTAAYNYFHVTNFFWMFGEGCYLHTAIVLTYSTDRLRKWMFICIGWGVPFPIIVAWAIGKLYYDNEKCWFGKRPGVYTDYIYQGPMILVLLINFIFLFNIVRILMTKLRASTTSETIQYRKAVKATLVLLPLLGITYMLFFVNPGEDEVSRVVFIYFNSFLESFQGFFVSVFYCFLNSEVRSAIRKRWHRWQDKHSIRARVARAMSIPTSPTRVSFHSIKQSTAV
Briefly: Radioligand-receptor binding assay (agonist radioligand), CRF1 Kd. Set-up: expressed in transfected cells; host or cells: HEK293 (permanently transfected), membranes. The settings on record: [125I]Tyr-sauvagine agonist radioligand. As for the experimental part:
Radioligand-Receptor Binding Assays (Agonist Radioligand).
Isolation of membranes from permanently transfected HEK293 cells expressing tCRFR1 or hCRFR1 and Scatchard analysis were performed with 50-100 ng protein as described (3) except that 50 pM [^125I]Tyr-sauvagine (NEN) was used as radioligand. [^125I]Tyr-Sauvagine was chosen as radioligand because of its equal high affinity for both CRF-R1 and CRF-R2. Nonspecific binding was always defined as residual [^125I]Tyr-sauvagine binding in the presence of 1 μM unlabeled ligand. The dissociation constant, KD, was calculated by the Ligand program (Munson et al. (1980) Anal. Biochem. 107: 220).

For data set [2], the target named is T1, CRFR1. Description: CRF1 antagonist effect (inhibition of CRFR1 cAMP signaling upon CRF binding). In kind it is cell-based. Set-up: expressed in transfected cells; host or cells: COS-M6 (transiently transfected).
Data set [3] deals with tau and ptau in SH-SY5Y cells. Briefly: tau and p-tau levels in SH-SY5Y cells after compound treatment (AlphaLISA). The class given is cell-based, Human. The settings on record: 1 μM compound, 24 hours, no CRF. As for the experimental part: Human neuroblastoma SH-SY5Y cells were treated for 24 hours with 1 μM compound, and then tau and ptau levels were determined from cell lysates using AlphaLISA (FIG. 7A). T41, as well as J32. […] Antalarmin (Ant), a known CRF1 antagonist, was used as a control.
A general note: In Alpha technology, singlet oxygen from a donor bead excites a nearby acceptor bead.

Data set [4] is described as follows: Parallel Artificial Membrane Permeability Assay (PAMPA), kIAM on IAM.PC.DD.2 HPLC column. The settings on record: kIAM >1 indicative of good brain permeability. The class given is in vitro ADME. The method, then: Receptor Binding, Inhibition, and Parallel Artificial Membrane Permeability Assay (PAMPA).
Agilent 1260 infinity high-performance liquid chromatography system was used for analysis. The analytical column used was an IAM.PC.DD.2 column (4.6 mm i.d.×10 cm length, particle size […], pore size 300 Å) purchased from Regis Technologies (Morton Grove, Ill.). The mobile phase was a mixture of acetonitrile and water (35:65 v/v). The flow rate of the mobile phase was maintained at 1.0 ml/min at 25° C., and the ultraviolet absorption wavelength was set at 254 nm. Analysis was performed using 5 μL injection of the 2 mM stock solutions of the compounds. Compounds with kIAM values >1 in the PAMPA assay in our hands are indicative of good brain permeability.
A general note: PAMPA measures passive passage across an artificial lipid membrane.

Data set [5] has as its system "Goldstein" (GS) prnp-huAPPwt-YFP mouse model. Briefly: Novel Object Recognition (NOR) in corticosterone (CTS)-treated GS mice. The class given is in vivo. The settings on record: T41 30 mkd oral 1 hour before CTS 30 mkd SQ, 21 days. The source says:
(§1) The purpose of this study was to determine behavioral and biochemical effects of T41 (shown below and in FIG. 2) and its ability to prevent corticosterone (CTS)-induced increases in ptau in the “Goldstein” (GS) prnp-huAPPwt-YFP mouse model. Corticosterone is known to increase CRF, which then should bind the receptor and trigger increases in ptau with chronic CTS injection. Biochemistry included total tau, ptau, and sAPPα from combined entorhinal cortex and hippocampus. Levels of sAPPβ, βCTF, and […] and -42 are believed to be too low to detect in this model.

The test system of the next data set is human sAPPα. Description: In vivo sAPPα, CTS-treated GS mice. More on the design: species or system mouse. The following applies: T41 30 mkd oral + CTS, 21 days.
Source text: as §1
The assay used to detect sAPPα recognizes human sAPPα, therefore the signal is expected to be undetectable in NTg mice. There was little or no difference between GS Veh and GS CTS mice (FIG. 13). […] Increases in sAPPα are correlated with improvement in cognition.

Data set [6] concerns tau and ptau in SH-SY5Y cells with CRF challenge. Description: CRF challenge assay, tau and p-tau in SH-SY5Y cells. The class given is cell-based, Human. The settings on record: for ptau/tau ratio: 1 μM compound, three days. The method, then: […] On the next day, cells were treated with 100 nM CRF for 3 days. Next, cells were lysed with RIPA buffer complemented with Halt Cocktail Inhibitors, and freeze/thaw 3 times. […] Significance was not seen without CRF due to low N#, but is highly significant with CRF.

The nature of data set [7]: In vivo pharmacokinetics, plasma and brain levels. The following applies: adult mice. As for the experimental part:
FIG. 10 illustrates in vivo pharmacokinetics for T41. As shown in the top panel, after oral or subcutaneous (SQ) dosing of adult mice at 10 or 30 mg/kg. and collection of plasma and brain at 1, 2, 4, and 8 hours, the brain/plasma ratio was ˜3:2 for 30 mg/kg oral dosing and ˜2:1 for 30 mg/kg SQ injection. […] After oral dosing at 30 mg/kg, brain levels peaked at 1 hour at 328 ng/g.

A further data set has as its system ptau and total tau. Briefly: In vivo ptau, total tau and ptau/tau ratio, combined entorhinal cortex and hippocampus, CTS-treated GS mice. Set-up: species or system mouse. The following applies: T41 30 mkd oral + CTS, 21 days.
Where [8] appears, read: 1 μM compound and 100 nM CRF, 24 hours.
Where [9] appears, read: hippocampus and entorhinal cortex.

The structures appear in SMILES notation. “And” between values parts separate entries of the source, which are not always exact repeats. Equal entries are not always repeated. Where only a bound is given, the exact number is not on record here.

Take `CCC(COC)Nc1nc(C)nc(Oc2c(C)cc(C)cc2C)c1C` (stereo not shown) [Compound T33]: at CRFR1 [1], the dissociation constant Kd is approximately 30 nM. This compound yielded an EC50 at CRFR1 [2] (values given in μM) of more than 2 µM. Also, in data set [3], the p-tau result is listed as “slightly decreased” and the total tau entry was “slightly decreased”. The “PAMPA KIAM” value in data set [4] is 6.34.

In the case of `CCC(COC)Nc1nc(C)nc(Oc2ccc(OC)cc2C)c1C` (stereo not shown) [Compound T36, 6-(4-methoxy-2-methylphenoxy)-N-(1-methoxybutan-2-yl)-2,5-dimethylpyrimidin-4-amine], the Kd at CRFR1 [1] is more than 100 nM. In addition, the “PAMPA KIAM” value in [4] was determined as 2.31.

`CCC(COC)Nc1nc(C)nc(Oc2ccc(Cl)cc2C)c1C` (stereo not shown) [Compound T37, 6-(4-chloro-2-methylphenoxy)-N-(1-methoxybutan-2-yl)-2,5-dimethylpyrimidin-4-amine] displayed a Kd on CRFR1 [1] of more than 100 nM. Also, in data set [4], the “PAMPA KIAM” value turned out to be 5.79.

For `CCC(COC)Oc1nc(C)nc(Nc2ccc(OC)cc2C)c1C` (stereo not shown) [Compound T38, N-(4-methoxy-2-methylphenyl)-6-((1-methoxybutan-2-yl)oxy)-2,5-dimethylpyrimidin-4-amine], the dissociation constant Kd on CRFR1 [1] is approximately 30 nM. The compound also gave an EC50 on CRFR1 [2] (values given in μM) of more than 2 µM. The “PAMPA KIAM” value in data set [4] amounted to 2.02.

The compound `CCC(COC)Oc1nc(C)nc(Nc2ccc(Cl)cc2C)c1C` (stereo not shown) [Compound T39] displayed a dissociation constant Kd at CRFR1 [1] of 75 nM. The compound further came in with a half-maximal effective concentration (EC50) on CRFR1 [2] (values given in μM) of more than 10 µM. Also, in data set [3], the p-tau entry is “slightly decreased”, the p-tau/tau ratio entry is given as “significantly decreased” and the total tau entry was “slightly decreased”. For the same compound, the “PAMPA KIAM” value in data set [4] was found to be 6.19.

`CCC(COC)Oc1nc(C)nc(OC(CC)COC)c1C` (stereo not shown) [Compound T40] yielded a Kd at CRFR1 [1] of more than 100 nM. In data set [4], the “PAMPA KIAM” value is recorded as 4.68.

For `CCC(COC)Oc1nc(C)nc(Nc2c(C)cc(C)cc2C)c1C` (stereo not shown) [Compound T41], on CRFR1 [1], the Kd was ~15 nM and 15 nM. The compound also displayed a Ki at CRFR1 [2] (CRFR1 cAMP signaling upon CRF binding) of 400 nM. The same compound gave an inhibition at 1 µM at CRFR1 [2] (at 1 μM, upon CRF binding) of 70%. At CRFR1 [2] (values in nM), this compound displayed an EC50 of 0.4 µM. Besides, the “novelty preference (NOR), post-study” value in data set [5] is reported as “promising trend toward some increased novelty preference”. In the data set with human sAPPα, the sAPPα entry is “trend toward an increase in sAPPα in T41-treated mice that was not statistically significant”. In addition, in data set [6] (setting [8]), the p-tau entry was “lowers p-tau with high significance”, the p-tau/tau ratio entry is listed as “significant lowering” and the tau result is given as “does not lower tau”. In addition, the ptau/tau ratio entry in [6] (with 100 nM CRF) is “lowers the ptau/tau ratio”. Besides, the ptau/tau ratio entry in data set [6] (without CRF) is “lowers the ptau/tau ratio”. Also, the “brain levels, comparison of doses and routes” value in data set [7] (10 or 30 mg/kg, oral or SQ) is “higher at 30 than 10 mg/kg and higher with SQ injection than oral delivery”. Also, in data set [7] (oral dosing at 30 mg/kg), the peak brain level was 328 ng/g and the “time of peak brain level” value stood at 1 h. Besides, in data set [3], the p-tau entry is reported as “slightly decreased”, the p-tau/tau ratio entry is recorded as “significantly decreased” and the total tau entry is recorded as “slightly decreased”. Also, in the data set on ptau and total tau (setting [9]), the ptau result was “no significant difference” and the total tau entry is “overall had the highest value”. Moreover, the ptau/tau ratio result in the data set with ptau and total tau (versus CTS alone) is recorded as “T41 pre-treatment to prevent that increase”. Moreover, the “PAMPA KIAM” value in data set [4] was found to be 4.01.

Compound `CCC(COC)Oc1nc(C)nc(Nc2ccc(F)cc2F)c1C` (stereo not shown) [Compound T45] yielded a dissociation constant Kd at CRFR1 [1] of more than 100 nM. In addition, the “PAMPA KIAM” value in [4] amounted to 3.32.

`CCC(COC)Oc1nc(C)nc(Nc2ccc(F)cc2C(F)(F)F)c1C` (stereo not shown) [Compound T46]: the Kd on CRFR1 [1] is more than 100 nM. Also, the “PAMPA KIAM” value in [4] is 2.90.

At CRFR1 [1], `CCC(COC)Oc1nc(C)nc(Nc2c(F)cc(F)cc2F)c1C` (stereo not shown) [Compound T47] yielded a Kd of more than 100 nM. Also, the “PAMPA KIAM” value in data set [4] was determined as 2.00.

As for `CCC(COC)Oc1nc(C)nc(Nc2ccc(F)cc2C)c1C` (stereo not shown) [Compound T48], the “PAMPA KIAM” value in data set [4] is 3.27.

On to `CCC(COC)Oc1nc(C)nc(Nc2c(C)cc(F)cc2C)c1C` (stereo not shown) [Compound T49], for which, at CRFR1 [1], binding was put at a Kd of 40 nM.

For the compound `CCC(COC)Oc1nc(C)nc(Nc2ncc(C)cc2C)c1C` (stereo not shown) [Compound T51], at CRFR1 [1], the affinity, expressed as Kd, was 1000 nM.

Consider `CCC(COC)Oc1nc(C)nc(Nc2cnn(C)c2C)c1C` (stereo not shown) [Compound T53], for which the “CRF1 (agonist radioligand) Kd/(nM)” value on CRFR1 [1] was “DEAD”.

In the case of `CCC(COC)Oc1nc(C)nc(Nc2ccn(C)n2)c1C` (stereo not shown) [Compound T54], the “CRF1 (agonist radioligand) Kd/(nM)” value at CRFR1 [1] is on record as “DEAD”.
